The results in this text go back to article PMC8943153, “Inhibition of lung microbiota-derived proapoptotic peptides ameliorates acute exacerbation of pulmonary fibrosis” (Nature Communications, 2022).

Usually half-life stands for the time in which the quantity being followed falls by half.

Read-outs that look alike come from different tables or passages of the source. No end group written: not given here.

In data set [1] the test system is putative serine protease in Staphylococcus nepalensis culture supernatant. The data set is classed as biochemical.
Data set [2] in a line: Half-life of corisin in vitro in a cell culture system. The data set is classed as in vitro ADME, human. Set-up: Corisin concentration in cell culture medium: unit not given here. The note with it: enzyme immunoassay; for Corisin concentration in cell culture medium: A549 culture, 10 µg/ml added. The procedure:
We assessed the half-life of corisin in a cell culture system to determine the elimination rate of corisin from a solution in a cell culture system. A549 alveolar epithelial cells were cultured up to confluence in DMEM supplemented with 10% heat-inactivated FBS. The cells were then washed and cultured in FBS (−) DMEM. Corisin was then inoculated into the cell culture medium at a final concentration of 10 µg/ml, and the cell supernatant was sampled after 0, 1, 3, 6, 12, and 24 h. The concentration of corisin was measured by enzyme immunoassay, and the half-life of corisin was determined.

Setting [3] is: 0.1, 0.3, 1 mM, 0.5, 1 and 2 h at 37 °C, silver staining.

`CC(C)C[C@H](NC(=O)[C@H]1O[C@@H]1C(=O)O)C(=O)NCCCCN=C(N)N` [E-64]: the Inhibition is on record as 0 in data set [1] (0h, 3uM); 0 in data set [1] (0h, 10uM); 0 in data set [1] (0h, 30uM); 0 in data set [1] (0.5h, 3uM); 0 in data set [1] (0.5h, 10uM); 0 in data set [1] (0.5h, 30uM). Besides, the Inhibition in data set [1] (1h, 3uM) was found to be 0; in data set [1] (1h, 10uM), 0; in data set [1] (1h, 30uM), 0.2; in data set [1] (2h, 3uM) it was 0; in data set [1] (2h, 10uM), 0; in data set [1] (2h, 30uM), 0.03. Moreover, the “Effect on transglycosylase degradation by S. nepalensis culture supernatant” value (shortened to “Effect on transglycosylase degradation”) in data set [1] (setting [3]) is “neither E-64 nor EDTA suppressed”.
For the compound `Cl.NCCc1ccc(S(=O)(=O)F)cc1` [pefabloc SC], in data set [1] (setting [3]), the “Effect on transglycosylase degradation” value is reported as “suppress transglycosylase degradation”.
For the compound `Cl.NCCc1ccc(S(=O)(=O)F)cc1` [pefabloc], the Inhibition in data set [1] (0h, 0.1mM) is recorded as 0; in data set [1] (0h, 0.3mM), 0; in data set [1] (0h, 1mM), 0; in data set [1] (0.5h, 0.1mM) it was 53.32; in data set [1] (0.5h, 0.3mM), 87.64; in data set [1] (0.5h, 1mM) it was 98.7. The Inhibition came to 56.04 in data set [1] (1h, 0.1mM); 90.52 in data set [1] (1h, 0.3mM); 98.55 in data set [1] (1h, 1mM); 52.92 in data set [1] (2h, 0.1mM); 90.94 in data set [1] (2h, 0.3mM); 99.04 in data set [1] (2h, 1mM).
As to `O=C(O)CN(CCN(CC(=O)O)CC(=O)O)CC(=O)O` [EDTA, ethylenediaminetetraacetic acid], in data set [1], the “Effect on transglycosylase degradation” value is reported as “neither E-64 nor EDTA suppressed”.
For the compound IVMPESSGNPNAVNPAGYR [corisin], in data set [2] (10 µg/ml in FBS(-) DMEM on A549 cells), the “Half-life in solution in a human alveolar cell culture system” value was less than 60 min. The “Corisin concentration in cell culture medium” value is 3931.8 in data set [2] (time 1 h); 2007.7 in data set [2] (time 3 h); 1433.4 in data set [2] (time 6 h); 1485.2 in data set [2] (time 12 h); 1357.9 in data set [2] (time 24 h). In data set [2] (human, 10 µg/ml in FBS(-) DMEM on confluent A549 cells, sampled 0-24 h, exponential decay model, n = 4 per time point, read-out: Half-life in A549 epithelial cell culture medium (converted)), the half-life at 10 µg/ml was 42 min.
